Measurements as given in US20130022558A1, “Methods For Imrproving the Appearance of Hyperpigmented Spot(s) and Skin Tone” (priority 2011, published 2013).

Test system: hyperpigmented spots on facial skin
Test: In vivo testing for hyperpigmented spot reduction (melanin Spot Area Fraction, split face, image analysis)
Design: species or system human subjects
Conditions: baseline to Week 8, Beijing, approx. January 21 to March 21; compared to the vehicle
From the text: The 270 subjects were screened according to inclusion/exclusion criteria which included the following:
Is willing to refrain from sun exposure by using supplied UV lotion and physical UV blocks, such as a hat, to avoid facial sunburn, tanning or wind burn.
• 1. […] Two hundred and seventy subjects were recruited for the study.

## NC(=O)c1cccnc1 [naicinamide, niacinamide]
  effect on seasonal skin darkening, in words: mitigated the effects of seasonal skin darkening
